Reference: PubChem BioAssay (NCI)
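In this assay, cells in 96-well plates receive the compound at five concentrations for 48 hours. Endpoints are linearly interpolated between the surrounding concentrations. At the TGI there is no net growth.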

Key:
Assay in all cases: DTP human tumour cell line panel, 48 h
786-0 renal = system: 786-0 renal
A498 renal = system: A498 renal
A549 NSCLC = system: A549 NSCLC
CAKI-1 renal = system: CAKI-1 renal
CCRF-CEM leukemia = system: CCRF-CEM leukemia
COLO 205 colon = system: COLO 205 colon
DLD-1 colon = system: DLD-1 colon
DMS 114 small cell lung = system: DMS 114 small cell lung
DMS 273 small cell lung = system: DMS 273 small cell lung
EKVX NSCLC = system: EKVX NSCLC
HCC-2998 colon = system: HCC-2998 colon
HCT-15 colon = system: HCT-15 colon
HL-60(TB) leukemia = system: HL-60(TB) leukemia
HOP-18 NSCLC = system: HOP-18 NSCLC
HOP-62 NSCLC = system: HOP-62 NSCLC
HOP-92 NSCLC = system: HOP-92 NSCLC
HT29 colon = system: HT29 colon
IGROV1 ovarian = system: IGROV1 ovarian
K-562 leukemia = system: K-562 leukemia
KM12 colon = system: KM12 colon
KM20L2 colon = system: KM20L2 colon
LOX IMVI melanoma = system: LOX IMVI melanoma
M19-MEL melanoma = system: M19-MEL melanoma
MALME-3M melanoma = system: MALME-3M melanoma
MOLT-4 leukemia = system: MOLT-4 leukemia
NCI-H23 lung = system: NCI-H23 lung
NCI-H460 lung = system: NCI-H460 lung
NCI-H522 lung = system: NCI-H522 lung
OVCAR-3 ovarian = system: OVCAR-3 ovarian
OVCAR-5 ovarian = system: OVCAR-5 ovarian
OVCAR-8 ovarian = system: OVCAR-8 ovarian
RPMI-8226 leukemia = system: RPMI-8226 leukemia
RXF 393 renal = system: RXF 393 renal
SF-268 CNS = system: SF-268 CNS
SF-295 CNS = system: SF-295 CNS
SF-539 CNS = system: SF-539 CNS
SK-MEL-2 melanoma = system: SK-MEL-2 melanoma
SK-MEL-28 melanoma = system: SK-MEL-28 melanoma
SK-MEL-5 melanoma = system: SK-MEL-5 melanoma
SK-OV-3 ovarian = system: SK-OV-3 ovarian
SN12C renal = system: SN12C renal
SNB-19 CNS = system: SNB-19 CNS
SNB-75 CNS = system: SNB-75 CNS
SNB-78 CNS = system: SNB-78 CNS
SW-620 colon = system: SW-620 colon
TK-10 renal = system: TK-10 renal
U251 CNS = system: U251 CNS
UACC-257 melanoma = system: UACC-257 melanoma
UACC-62 melanoma = system: UACC-62 melanoma
UO-31 renal = system: UO-31 renal
ACHN renal = system: ACHN renal
HCT-116 colon = system: HCT-116 colon
LXFL 529 NSCLC = system: LXFL 529 NSCLC
M14 melanoma = system: M14 melanoma
OVCAR-4 ovarian = system: OVCAR-4 ovarian
SR leukemia = system: SR leukemia
XF 498 CNS = system: XF 498 CNS

Measured: TGI

Cc1nc(N)sc1C(=O)/C=C/c1ccc([N+](=O)[O-])cc1
not listed: ACHN renal | HCT-116 colon | LXFL 529 NSCLC | M14 melanoma | OVCAR-4 ovarian | SR leukemia | XF 498 CNS
> 100 µM: all other assays above

CCOC(=O)C1CC/C(=C(/C#N)C(=O)OC)N1 (stereo not drawn)
not listed: HOP-18 NSCLC | HT29 colon | MALME-3M melanoma | OVCAR-5 ovarian
> 100 µM: all other assays above
